The results in this text go back to ChEMBL document CHEMBL4177704, “Synthesis and biological evaluation of water-soluble derivatives of chiral gossypol as HIV fusion inhibitors targeting gp41” (Bioorg Med Chem Lett, 2018).

Values joined by “and” are separate entries in the source; they are usually repeats but may differ in a detail not shown here. Equal values may be shown once. Active and inactive are the calls of the source. The calls are words filed in the database; no cut-off is given here.

Data set [1] in a line: Selectivity index, ratio of CC50 for human TZM-bl cells to IC50 for HIV-1 3B infected in human TZM-bl cells. The data set is classed as toxicity, cell-based.
Data set [2] has as its target Envelope glycoprotein gp160 (Human immunodeficiency virus 1, UniProt Q6QLK5). The experiment in a line: Inhibition of HIV gp41 6-helix bundle formation preincubated with C34 and N36 for 30 mins.
Data set [3] can be described thus: Spermicidal activity against mouse sperm assessed as motility of sperm at 100 uM after 1 hr by hemocytometric analysis. The format is ADME.
The subject of data set [4] is Human immunodeficiency virus 1. As to the kind of experiment: Antiviral activity against HIV-1 3B infected in human TZM-bl cells treated for 2 hrs followed by compound washout measured after 2 days by luciferase reporter assay. The data set is classed as functional, organism-based. In general terms: In a reporter assay the amount or activity of a reporter protein is the signal.

In another data set the test system is TZM. The experiment in a line: Cytotoxicity against human TZM-bl cells after 72 hrs by MTT assay. The data set is classed as cell-based. Particulars: tzm, 72 h. In general terms: Formazan colour is commonly taken as a measure of viable cells.
Data set [5] relates to Human immunodeficiency virus 1. As to the kind of experiment: Antiviral activity against X4R5 tropic HIV-1 93TH051 expressing Env subtype E infected in human PBMC assessed as reduction in p24 expression levels after 4 days by ELISA. Particulars: Human immunodeficiency virus 1, 93TH051, PBMC, 96 h. The format is functional, organism-based. Background: An ELISA detects its analyte on a solid surface through an enzyme-linked reagent.

Data set [6] concerns Human immunodeficiency virus 1. As to the kind of experiment: Antiviral activity against HIV-1 3B infected in human TZM-bl cells at 10 uM treated simultaneously with viral infection for 2 hrs followed by compound washout measured after 2 days by luciferase reporter assay. The format is functional, organism-based.
The subject of data set [7] is Human immunodeficiency virus 1. The experiment in a line: Antiviral activity against HIV-1 3B infected in human TZM-bl cells at 10 uM treated 2 to 6 hrs post infection for 2 hrs followed by compound washout measured after 2 days by luciferase reporter assay. The format is functional, organism-based.
The mark [8] stands for this setting: Human immunodeficiency virus 1, 3B, TZM-bl.

Envelope glycoprotein gp160, sequence (Q6QLK5 whole entry): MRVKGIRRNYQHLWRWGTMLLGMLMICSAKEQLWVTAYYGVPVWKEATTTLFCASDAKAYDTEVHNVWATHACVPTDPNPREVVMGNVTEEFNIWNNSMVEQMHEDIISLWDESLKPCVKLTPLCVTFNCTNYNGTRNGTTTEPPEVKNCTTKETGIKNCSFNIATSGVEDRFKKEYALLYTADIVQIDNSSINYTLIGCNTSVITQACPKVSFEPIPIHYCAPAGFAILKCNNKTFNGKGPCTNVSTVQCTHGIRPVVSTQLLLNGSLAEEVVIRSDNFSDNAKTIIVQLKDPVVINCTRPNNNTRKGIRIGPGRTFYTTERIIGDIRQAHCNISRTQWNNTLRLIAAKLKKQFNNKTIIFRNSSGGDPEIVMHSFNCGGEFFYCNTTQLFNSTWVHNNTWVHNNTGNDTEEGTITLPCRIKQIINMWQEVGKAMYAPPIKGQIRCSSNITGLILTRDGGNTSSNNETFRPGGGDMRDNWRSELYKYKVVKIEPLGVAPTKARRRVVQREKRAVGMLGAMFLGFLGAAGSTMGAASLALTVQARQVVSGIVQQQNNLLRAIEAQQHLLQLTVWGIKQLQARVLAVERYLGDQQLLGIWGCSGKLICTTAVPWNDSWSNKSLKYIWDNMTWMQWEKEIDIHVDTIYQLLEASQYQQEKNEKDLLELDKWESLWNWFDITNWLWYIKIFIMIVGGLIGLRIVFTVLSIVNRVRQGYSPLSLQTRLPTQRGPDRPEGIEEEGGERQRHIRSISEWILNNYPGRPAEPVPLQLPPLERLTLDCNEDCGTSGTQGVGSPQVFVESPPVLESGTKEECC

`Cc1cc2c(c(O)c1-c1c(C)cc3c(c1O)/C(=C/NC(C)C(=O)NC(C)C(=O)[O-])C(=O)C(O)=C3C(C)C)/C(=C/NC(C)C(=O)NC(C)C(=O)[O-])C(=O)C(O)=C2C(C)C.[Na+].[Na+]` (single isomer, unassigned; (-)): the “Ratio CC50/IC50” value in data set [1] came to 24.99. Besides, the IC50 (commonly the concentration at which inhibition is half-maximal) was determined as 7.87 µM in data set [2], 1430 nM in data set [4] and 1720 nM in data set [5]. Moreover, the Activity result in data set [3] is “Non-Toxic”. In the data set with TZM, the cytotoxic concentration (CC50) (commonly the concentration that lowers cell viability or growth by half) turned out to be 35.7 µM.

With `Cc1cc2c(c(O)c1-c1c(C)cc3c(c1O)/C(=C/NC(C)S(=O)(=O)[O-])C(=O)C(O)=C3C(C)C)/C(=C/NC(C)S(=O)(=O)[O-])C(=O)C(O)=C2C(C)C.[Na+].[Na+]` (single isomer, unassigned; (-)), in data set [1] (TZM-bl cells, read-out: Ratio CC50/IC50), the selectivity ratio is 32.3. The IC50 was determined as 7.34 µM in data set [2], 1170 nM in data set [4] and 1560 nM in data set [5]. Further, the Activity entry in data set [3] was “Non-Toxic”. For the same compound, the CC50 in the data set on TZM was 37.8 µM.

Regarding `Cc1cc2c(c(O)c1-c1c(C)cc3c(c1O)/C(=C/NC(C)C(=O)NC(C)C(=O)O)C(=O)C(O)=C3C(C)C)/C(=C/NC(C)C(=O)NC(C)C(=O)O)C(=O)C(O)=C2C(C)C` (single isomer, unassigned; (-)), the result in data set [6] was Active. The result in data set [7] was inactive.

`Cc1cc2c(c(O)c1-c1c(C)cc3c(c1O)/C(=C/NC(C)S(=O)(=O)O)C(=O)C(O)=C3C(C)C)/C(=C/NC(C)S(=O)(=O)O)C(=O)C(O)=C2C(C)C` (single isomer, unassigned; (-)): in data set [6], the outcome was Active. The result in data set [7] was inactive.

As for `Cc1cc2c(c(O)c1-c1c(C)cc3c(c1O)/C(=C/N[C@@H]1[C@@H](O)[C@H](O)[C@@H](CO)O[C@H]1O)C(=O)C(O)=C3C(C)C)/C(=C/N[C@@H]1[C@@H](O)[C@H](O)[C@@H](CO)O[C@H]1O)C(=O)C(O)=C2C(C)C` (stereo in doubt; (-)-1a) [listing 1 of 2 here], the “Ratio CC50/IC50” value in data set [1] is 32.12. In addition, the IC50 in data set [2] was determined as 6.36 µM; in data set [4], 720 nM; in data set [5], 1220 nM. Further, the Activity result in data set [3] was “Non-Toxic”. Besides, in the data set on TZM, half-maximal cytotoxicity (CC50) was put at 23.1 µM.

With `Cc1cc2c(c(O)c1-c1c(C)cc3c(c1O)/C(=C/N[C@@H]1[C@@H](O)[C@H](O)[C@@H](CO)O[C@H]1O)C(=O)C(O)=C3C(C)C)/C(=C/N[C@@H]1[C@@H](O)[C@H](O)[C@@H](CO)O[C@H]1O)C(=O)C(O)=C2C(C)C` (stereo in doubt; (-)-1a) [listing 2 of 2 here], in data set [6], the result was Active. Further, in data set [7], the outcome was inactive.

`Cc1cc2c(C(C)C)c(O)c(O)c(C=O)c2c(O)c1-c1c(C)cc2c(C(C)C)c(O)c(O)c(C=O)c2c1O` [GOSSYPOL]: the Activity entry in data set [3] is recorded as “Toxic”. The CC50 in the data set with TZM was 18.1 µM and 5.22 µM.

`Cc1cn([C@H]2C[C@H](N=[N+]=[N-])[C@@H](CO)O2)c(=O)[nH]c1=O` [ZIDOVUDINE] registered an IC50 in data set [4] (setting [8]) of 2.8 nM. The outcome in data set [6] was Active. Moreover, in data set [7], the result was inactive.

Compound enfuvirtide gave an IC50 in data set [4] (setting [8]) of 90.5 nM. Also, in data set [6], the outcome was Active. Moreover, the result in data set [7] was inactive.
